Data published in patent publication US20060058504A1, “Peptides capable of inducing attraction to the axonal growth and their use for treating neurodegenerative diseases” (Centre National de la Recherche Scientific (CNRS), priority 2002, published 2006).
Positions count from the first letter of the chain named. Names and notes keep the numbering of the source. “Also recorded” adds a separate entry of the source.

Columns and labels:
[1] = system: cortical axons repelled by Sema3A secreted from the ventral spinal cord; experiment: Co-culture of cortical slices and ventral spinal cord explants (axon guidance response to Sema3A); type: cell-based, mice; conditions: for conversion of Sema3A-induced chemorepulsion into attraction by peptide: peptide at 10^−6M; for Axonal length, Away / Number of axons, Away / Axonal length, Towards / Number of axons, Towards: Ctx/vSC co-culture, L1Fc 3 μg/ml, ODQ 10^−5 M; for Axonal length, Away / Number of axons, Away: growth away from spinal cord explant; for Axonal length, Towards / Number of axons, Towards: growth towards spinal cord explant; for effect of inhibitor on L1Fc-induced switch of Sema3A repulsion to attraction: inhibitor combined with L1Fc 3 μg/ml; for guidance index: qualitative index from −2 (repulsion) to +2 (attraction), L1Fc chimeras 3 μg/ml, ODQ 10^−5M; for switching of Sema3A repulsion to attraction by L1Fc chimera: chimera 3 μg/ml in culture medium
Method: Blocks of cortex were dissected from P0 (postnatal day 0) to P2 mice and cut into 250 μm thick slices with a McIlwain tissue chopper. The ventral part of the cervical spinal cord was dissected and cut into 250 μm thick slices. Co-culture of cortical slices and ventral spinal cord explants were performed in a three-dimensional plasma clot, as described previously (Castellani et al., 2000). Cortical slices were oriented in the plasma clot as indicated in FIG. 1B to give to axons equivalent chances to be deflected away or towards the spinal cord explant. Purified wild-type or mutant L1Fc chimeras were added to the culture medium (3 μg/ml). Inhibitors of the guanylyl cyclase (ODQ, 10^−5 M, Sigma) and NOS (7NI, […], Sigma) were added to the culture medium, either alone or with wild-type L1Fc (3 μg/ml). After one or two days in vitro (DIV), the cultures were fixed with 4% paraformaldehyde (PFA) and analyzed by phase contrast microscopy (Axiovert 35-M, Zeiss). A qualitative guidance index was attributed to the co-cultures, to assess the degree of repulsive (negative values) or attractive (positive values) effects (Castellani et al., 2000). The index ranged from −2 (when most fibers grew away from the spinal cord explant) to +2 (when most fibers grew towards the explant), with intermediate situations (index of −1 and +1 for moderate guidance effects). An index of zero was attributed to the cultures showing no preferential growth. Quantitative analysis of axon length and number of axons growing from cortical slices was performed as described previously (Castellani et al., 2000). A proximal and a distal region, each of them covering a 600 μm-piece of cortical tissue were determined for each culture. All fibers extending from these two regions were counted and the length of the three longest fibers was measured, using computer analysis software (Visiolab 2000, Biocom). Immunofluorescence labeling of axons was performed using the mouse anti-phosphorylated neurofilament antibody SMI31 (Stemberger and Meyer Inc.), and Texas red-conjugated secondary anti-mouse antibody (see result obtained for number of axons and axonal length in the following tables 1 and 2).
It has been previously developed an assay system using explants of ventral spinal cord co-cultured with cortical axons in order to determine the factors involved in axonal repulsion and attraction (Castellani et al., 2000). Using this system we have shown that Sema3A secreted from the ventral spinal cord repels cortical axons. In the presence of soluble wild-type L1Fc chimeric protein however, repulsion is switched to attraction (Castellani et al., […]). In the present study, we aimed to identify the L1 interactions underlying the switching process. As Ig domains have been implicated in binding of Ig CAMs to many of their ligands (Brümmendorf and Rathjen, 1996) we hypothesized that they would also be required for L1 Fc-mediated switching. […] L1 Fc chimeras containing pathological missense mutations affecting specific Ig domains (De Angelis et al., 1999 and FIGS. 1A, 1B) were assessed for their ability to reverse Sema3A repulsion to attraction.

[2] = system: L1; conditions: mutant bound to itself; cited from earlier work
[3] = biological target: T1, full length human L1 (Homo sapiens, UniProt P32004); experiment: Binding of L1Fc chimeras to COS cells expressing wild-type L1 (immunofluorescence)
T1 construct: transiently transfected with expression vectors encoding full length human L1; expressed in transfected cells; host or cells: COS7
T1 sequence (P32004 20-1257): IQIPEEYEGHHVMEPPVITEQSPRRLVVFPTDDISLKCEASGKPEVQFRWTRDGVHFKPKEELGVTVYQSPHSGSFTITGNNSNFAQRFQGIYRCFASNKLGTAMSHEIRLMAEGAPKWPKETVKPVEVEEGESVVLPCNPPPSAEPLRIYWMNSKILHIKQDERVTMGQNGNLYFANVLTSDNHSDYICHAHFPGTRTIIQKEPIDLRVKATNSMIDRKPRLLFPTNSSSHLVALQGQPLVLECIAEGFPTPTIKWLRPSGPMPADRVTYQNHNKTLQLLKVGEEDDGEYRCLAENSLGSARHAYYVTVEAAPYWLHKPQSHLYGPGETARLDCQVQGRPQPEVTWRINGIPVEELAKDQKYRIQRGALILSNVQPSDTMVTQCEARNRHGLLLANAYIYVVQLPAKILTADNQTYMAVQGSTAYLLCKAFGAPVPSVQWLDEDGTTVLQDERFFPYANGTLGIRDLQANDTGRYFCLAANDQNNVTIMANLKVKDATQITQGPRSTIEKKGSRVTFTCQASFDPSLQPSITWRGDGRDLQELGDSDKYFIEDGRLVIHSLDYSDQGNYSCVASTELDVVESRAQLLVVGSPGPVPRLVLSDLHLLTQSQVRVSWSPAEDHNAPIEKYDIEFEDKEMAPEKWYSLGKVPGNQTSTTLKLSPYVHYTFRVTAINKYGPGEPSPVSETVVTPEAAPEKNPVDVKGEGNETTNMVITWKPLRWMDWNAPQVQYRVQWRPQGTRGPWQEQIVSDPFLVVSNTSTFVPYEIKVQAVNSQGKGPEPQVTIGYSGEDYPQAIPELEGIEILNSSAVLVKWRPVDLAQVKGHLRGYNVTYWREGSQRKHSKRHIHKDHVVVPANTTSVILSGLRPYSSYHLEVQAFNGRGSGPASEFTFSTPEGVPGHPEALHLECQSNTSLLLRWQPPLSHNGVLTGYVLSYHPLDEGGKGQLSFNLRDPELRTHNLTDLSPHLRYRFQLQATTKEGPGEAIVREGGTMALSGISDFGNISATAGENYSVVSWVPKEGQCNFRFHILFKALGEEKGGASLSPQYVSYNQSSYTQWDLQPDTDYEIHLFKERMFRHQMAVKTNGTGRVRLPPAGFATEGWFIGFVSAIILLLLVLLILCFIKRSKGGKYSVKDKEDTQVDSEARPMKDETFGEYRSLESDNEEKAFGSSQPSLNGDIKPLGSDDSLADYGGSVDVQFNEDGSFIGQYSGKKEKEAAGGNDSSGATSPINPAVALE
Method: (§1) The mutant L1Fc chimeras were produced and purified as described previously (De Angelis et al., 1999). Briefly, COS-7 cells were transiently transfected with 10 μg DNA per 150 mm culture dish, the soluble Fc chimeric protein was allowed to accumulate in the media for 6 days and was recovered and purified by protein A-Sepharose affinity chromatography. In the binding experiments, L1Fcs were cross-linked to anti-human Fc antibodies (50 μg/ml, Jackson Immunoresearch) for 1 hr at 37° C. Binding detection to NP-1 requested concentrations of L1Fcs 10 folds higher than L1. Antibody conjugated L1-Fc protein was then incubated with monolayers of COS7 cells transiently transfected with expression vectors encoding full length human L1 or myc-tagged NP-1 where the cytoplasmic domain is deleted (gift of J. Raper, 2000 and Renzi et al., 1999). Following incubation, the cells were fixed with 4% PFA, and processed for double-immunofluorescence detection. NP-1 was detected using a mouse anti-c myc antibody (clone 9E10, Sigma) and L1 using a rat monoclonal anti-L1 antibody. Secondary antibody anti-c-myc (Texas-red conjugated anti-mouse antibodies) was used to detect NP-1, anti-L1 (Texas red conjugated anti-rat antibodies) to detect L1, and anti-Fc (FITC conjugated anti-rabbit antibodies) to detect bound L1Fc chimeras. After secondary antibody incubation, the cells were washed with PBS and mounted in Mowiol (Calbiochem).
Thus, Ig CAMs F3 and TAG-1 (the rodent homologue of axonin-1) ate unlikely to be axonal receptors for L1Fc in the reversion process. […] In the present study however, mutated L1Fc proteins were required to interact with wild-type L1 expressed on growth cones. To formally exclude a role for homophilic binding of L1 in the initiation of the reversion process, it was therefore necessary to examine whether homophilic binding of the mutated L1Fc chimeras to wild-type L1 was also disrupted. Mutated L1Fcs were therefore incubated with COS7 cells transfected with full-length wild-type L1 cDNA and binding was assessed by immunofluorescence. In parallel, homophilic binding of mutant/mutant and mutant/wild-type L1Fcs was compared in a two-color FACS aggregation assay, allowing a quantitative assessment to be made (see Methods). […] Similarly, in the two color FACS assay homophilic binding was restored to 74.4% and 90.5% of wild-type levels for A426D and H210Q respectively (FIG. 2B). […] This mutation however still promoted the L1 Fc induced switching of Sema3A repulsion to attraction in the co-culture assay. Thus, the ability of L1Fc to switch Sema3A repulsion is not dependent on homophilic binding. Consequently, the trans interaction of L1Fc with L1 in the receptor complex is not required for the change in growth cone responsiveness to Sema3A.

[4] = system: NP-1; experiment: Binding of L1Fc chimeras to NP-1 expressing COS7 cells (immunofluorescence)
Method: as §1
Next, we examined the ability of the mutant L1 Fc chimeras to bind NP-1. COS7 cells were transfected with a vector encoding the extracellular and transmembrane domains of NP-1 fused to a myc tag (ANP-1, Renzi et al., J. Neurosci., 15:7870-7880, 1999), and incubated with the mutant L1Fc chimeras. Binding was detected by immunofluorescence. […] Binding of L120V, G121S and A426D L1Fcs to NP-1 is illustrated in FIG. 3.

[5] = system: F3, axonin-1 and TAX-1; conditions: F3, axonin-1 (and TAX-1 where stated); cited from earlier work

In the case of “FASNKLGTAM (Description of the Artificial sequence Derived from the human amino-acid sequence of L1 Ig1 domain) [ten amino-acid peptide from L1 Ig1 domain]”, the “conversion of Sema3A-induced chemorepulsion into attraction by peptide” value [1] is reported as “successfully converted Sema3A-induced chemorepulsion into attraction”.

With `O=[N+]([O-])c1cccc2cn[nH]c12` [7NI, 7 nitroindazole, reference compound] the “Axonal length, Away” value [1] was 407.6 +/− 5, the “Number of axons, Away” value [1] was 25.6 +/− 1.6 and the “Axonal length, Towards” value [1] was 203.1 +/− 6, *. For the same molecule, the “Number of axons, Towards” value [1] was 5 +/− 0.6, *, the “effect of inhibitor on L1Fc-induced switch of Sema3A repulsion to attraction” value [1] was “did block L1Fc-mediated chemoattraction; also recorded: prevented the L1 Fc induced switching of Sema3A from repulsion to attraction” and the guidance index [1] was −1.6.

With `O=c1onc2cnc3ccccc3n12` [ODQ, 1H-(1,2,4)oxadiazolo(4,3-a)quinoxalin-1-one, reference compound] the “Axonal length, Away” value [1] was 384.1 +/− 7, the “Number of axons, Away” value [1] was 25.2 +/− 1.8 and the “Axonal length, Towards” value [1] was 206.9 +/− 8, *. For the same molecule, the “Number of axons, Towards” value [1] was 5.1 +/− 0.5, *^, the “effect of inhibitor on L1Fc-induced switch of Sema3A repulsion to attraction” value [1] was “reversion was prevented; also recorded: prevented the L1 Fc induced switching of Sema3A from repulsion to attraction” and the guidance index [1] was −1.6.

For “ASNKL (Description of the Artificial sequence Derived from the human amino-acid sequence of L1 Ig1 domain) [ASNKL120, five amino-acid peptide from L1 Ig1 domain]”, the “conversion of Sema3A-induced chemorepulsion into attraction by peptide” value [1] was “successfully converted Sema3A-induced chemorepulsion into attraction”.

B1: H210Q: L1Fc chimera with missense mutation H210Q in Ig domain 2 (protein)
chain: IQIPEEYEGHHVMEPPVITEQSPRRLVVFPTDDISLKCEASGKPEVQFRWTRDGVHFKPKEELGVTVYQSPHSGSFTITGNNSNFAQRFQGIYRCFASNKLGTAMSHEIRLMAEGAPKWPKETVKPVEVEEGESVVLPCNPPPSAEPLRIYWMNSKILHIKQDERVTMGQNGNLYFANVLTSDNHSDYICQAHFPGTRTIIQKEPIDLRVKATNSMIDRKPRLLFPTNSSSHLVALQGQPLVLECIAEGFPTPTIKWLRPSGPMPADRVTYQNHNKTLQLLKVGEEDDGEYRCLAENSLGSARHAYYVTVEAAPYWLHKPQSHLYGPGETARLDCQVQGRPQPEVTWRINGIPVEELAKDQKYRIQRGALILSNVQPSDTMVTQCEARNRHGLLLANAYIYVVQLPAKILTADNQTYMAVQGSTAYLLCKAFGAPVPSVQWLDEDGTTVLQDERFFPYANGTLGIRDLQANDTGRYFCLAANDQNNVTIMANLKVKDATQITQGPRSTIEKKGSRVTFTCQASFDPSLQPSITWRGDGRDLQELGDSDKYFIEDGRLVIHSLDYSDQGNYSCVASTELDVVESRAQLLVVGSPGPVPRLVLSDLHLLTQSQVRVSWSPAEDHNAPIEKYDIEFEDKEMAPEKWYSLGKVPGNQTSTTLKLSPYVHYTFRVTAINKYGPGEPSPVSETVVTPEAAPEKNPVDVKGEGNETTNMVITWKPLRWMDWNAPQVQYRVQWRPQGTRGPWQEQIVSDPFLVVSNTSTFVPYEIKVQAVNSQGKGPEPQVTIGYSGEDYPQAIPELEGIEILNSSAVLVKWRPVDLAQVKGHLRGYNVTYWREGSQRKHSKRHIHKDHVVVPANTTSVILSGLRPYSSYHLEVQAFNGRGSGPASEFTFSTPEGVPGHPEALHLECQSNTSLLLRWQPPLSHNGVLTGYVLSYHPLDEGGKGQLSFNLRDPELRTHNLTDLSPHLRYRFQLQATTKEGPGEAIVREGGTMALSGISDFGNISATAGENYSVVSWVPKEGQCNFRFHILFKALGEEKGGASLSPQYVSYNQSSYTQWDLQPDTDYEIHLFKERMFRHQMAVKTNGTGRVRLPPAGFATE
modifications: left off: a dimerising Fc or GST
For B1, the “switching of Sema3A repulsion to attraction by L1Fc chimera” value (“switching of Sema3A repulsion” below) [1] is given as “able to reverse Sema3A repulsion to attraction; also recorded: efficiently induce switching of Sema3A repulsion to attraction”, the “effect of mutation on homophilic binding” value [2] is given as “affect homophilic” and the “binding to wild-type L1 expressed in COS cells” value [3] is given as “bound to wild-type L1”. For the same molecule, the “binding to NP-1 expressing cells” value [4] was “bound NP-1 expressing cells”.

B2: E309K: L1Fc chimera with missense mutation E309K in Ig domain 3 (protein)
chain: B1 chain with Q191H, E290K
modifications: left off: a dimerising Fc or GST
For B2, the “effect of mutation on heterophilic binding” value [5] is listed as “affect”, the “switching of Sema3A repulsion” value [1] is listed as “able to reverse Sema3A repulsion to attraction; also recorded: efficiently induce switching of Sema3A repulsion to attraction; also recorded: switched Sema3A from repulsion to attraction to the same extent as wild type L1Fc” and the “binding to NP-1 expressing cells” value [4] is listed as “bound NP-1 expressing cells”.

B3: A426D: L1Fc chimera with missense mutation A426D in Ig domain 5 (protein)
chain: B1 chain with Q191H, A407D
modifications: left off: a dimerising Fc or GST
In the case of B3, the “effect of mutation on heterophilic binding” value [5] is given as “reduce”, the “switching of Sema3A repulsion” value [1] is given as “able to reverse Sema3A repulsion to attraction; also recorded: efficiently induce switching of Sema3A repulsion to attraction; also recorded: switched Sema3A from repulsion to attraction to the same extent as wild type L1Fc” and the “effect of mutation on homophilic binding” value [2] is given as “reduce homophilic binding”. For the same molecule, the “binding to wild-type L1 expressed in COS cells” value [3] was “bound to wild-type L1” and the “binding to NP-1 expressing cells” value [4] was “bound to NP-1 expressing cells”.
